Laboratory results taken from patent US7709471B2, “Compounds” (AstraZeneca AB, priority 2006, dated 2010).

Assays:
[1] = target: recombinant Plk1 (Homo sapiens, UniProt P53350); assay: In Vitro Plk1 Enzyme Assay (SPA, GST-Cdc25C phosphorylation); type: biochemical; settings: ATP 64 nM, 90 minutes, read-out: IC50 (Plk1 enzyme inhibition)
[2] = system: human colon tumour cell line HT29; assay: Cellular Assay (phosphohistone H3 Ser10 mitotic marker, HT29); type: cell-based; settings: HT-29, 24 h, HT29 cells, read-out: IC50 (cellular assay, phosphohistone H3)

Sequence of recombinant Plk1 (P53350 whole entry): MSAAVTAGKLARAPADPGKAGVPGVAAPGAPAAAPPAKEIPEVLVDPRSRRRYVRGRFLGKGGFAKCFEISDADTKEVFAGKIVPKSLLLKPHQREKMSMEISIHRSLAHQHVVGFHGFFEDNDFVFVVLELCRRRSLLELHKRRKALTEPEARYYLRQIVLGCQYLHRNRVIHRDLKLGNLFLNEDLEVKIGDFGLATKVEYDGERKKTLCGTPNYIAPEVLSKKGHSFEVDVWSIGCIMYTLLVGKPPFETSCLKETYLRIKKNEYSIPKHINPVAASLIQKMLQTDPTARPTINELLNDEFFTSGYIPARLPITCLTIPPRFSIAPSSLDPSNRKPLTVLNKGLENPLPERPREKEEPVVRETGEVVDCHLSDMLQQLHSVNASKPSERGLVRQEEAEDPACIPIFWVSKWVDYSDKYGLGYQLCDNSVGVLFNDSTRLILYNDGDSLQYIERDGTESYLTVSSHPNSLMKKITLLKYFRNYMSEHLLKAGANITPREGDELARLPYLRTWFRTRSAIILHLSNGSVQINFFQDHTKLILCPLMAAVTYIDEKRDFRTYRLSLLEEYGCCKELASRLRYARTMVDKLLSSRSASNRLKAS

SMILES	IC50 [1]	IC50 [2]
COc1cc(C(=O)N[C@@H]2CC[C@H](C(=O)N(C)C)C2)ccc1Nc1ncc2c(n1)N(C1CCCC1)CCC(=O)N2C [Example 88, 4-[(6-cyclopentyl-2-methyl-3-oxo-2,6,8,10-tetrazabicyclo[5.4.0]undeca-8,10,12-trien-9-yl)amino]-N-[(1R,3S)-3-(dimethylcarbamoyl)cyclopentyl]-3-methoxy-benzamide]	< 100 µM	< 0.3 µM
COc1cc(C(=O)NCC2CC2)ccc1Nc1ncc2c(n1)N(C1CCCC1)CCC(=O)N2C [Example 94, 4-[(6-cyclopentyl-2-methyl-3-oxo-2,6,8,10-tetrazabicyclo[5.4.0]undeca-8,10,12-trien-9-yl)amino]-N-(cyclopropylmethyl)-3-methoxy-benzamide]	< 100 µM	< 0.3 µM
COc1cc(C(=O)NCc2ccccc2)ccc1Nc1ncc2c(n1)N(C1CCCC1)CCC(=O)N2C [Example 96, N-benzyl-4-[(6-cyclopentyl-2-methyl-3-oxo-2,6,8,10-tetrazabicyclo[5.4.0]undeca-8,10,12-trien-9-yl)amino]-3-methoxy-benzamide]	< 100 µM	< 0.3 µM
COc1cc(C(=O)Nc2ccccc2)ccc1Nc1ncc2c(n1)N(C1CCCC1)CCC(=O)N2C [Example 99, 4-[(6-cyclopentyl-2-methyl-3-oxo-2,6,8,10-tetrazabicyclo[5.4.0]undeca-8,10,12-trien-9-yl)amino]-3-methoxy-N-phenyl-benzamide]	< 100 µM	< 1 µM
COc1cc(N(C)C2CCN(C)CC2)ccc1Nc1ncc2c(n1)N(C1CCCC1)CCC(=O)N2C [Example 104, 6-cyclopentyl-9-[[2-methoxy-4-[methyl-(1-methyl-4-piperidyl)amino]phenyl]amino]-2-methyl-2,6,8,10-tetrazabicyclo[5.4.0]undeca-8,10,12-trien-3-one]	< 0.3 µM	< 1 µM
COCCN1CCN(c2ccc(Nc3ncc4c(n3)N(C3CCCC3)CCC(=O)N4C)c(OC)c2)CC1 [Example 105, 6-cyclopentyl-9-[[2-methoxy-4-[4-(2-methoxyethyl)piperazin-1-yl]phenyl]amino]-2-methyl-2,6,8,10-tetrazabicyclo[5.4.0]undeca-8,10,12-trien-3-one]	< 1 µM	< 30 µM
COc1cc(NCCN(C)C)ccc1Nc1ncc2c(n1)N(C1CCCC1)CCC(=O)N2C [Example 107, 6-cyclopentyl-9-[[4-(2-dimethylaminoethylamino)-2-methoxy-phenyl]amino]-2-methyl-2,6,8,10-tetrazabicyclo[5.4.0]undeca-8,10,12-trien-3-one]	< 1 µM	< 30 µM
COc1cc(N2CCCN(C)CC2)ccc1Nc1ncc2c(n1)N(C1CCCC1)CCC(=O)N2C [Example 109, 6-cyclopentyl-9-[[2-methoxy-4-(4-methyl-1,4-diazepan-1-yl)phenyl]amino]-2-methyl-2,6,8,10-tetrazabicyclo[5.4.0]undeca-8,10,12-trien-3-one]	< 1 µM	< 0.3 µM
COc1cc(OC2CCN(C)CC2)ccc1Nc1ncc2c(n1)N(C1CCCC1)CCC(=O)N2C [Example 113, 6-cyclopentyl-9-[[2-methoxy-4-[(1-methyl-4-piperidyl)oxy]phenyl]amino]-2-methyl-2,6,8,10-tetrazabicyclo[5.4.0]undeca-8,10,12-trien-3-one]	< 1 µM	< 1 µM
COc1cc(OCCN2CCOCC2)ccc1Nc1ncc2c(n1)N(C1CCCC1)CCC(=O)N2C [Example 115, 6-cyclopentyl-9-[[2-methoxy-4-(2-morpholin-4-ylethoxy)phenyl]amino]-2-methyl-2,6,8,10-tetrazabicyclo[5.4.0]undeca-8,10,12-trien-3-one]	< 1 µM	< 30 µM
CN(C)c1ccc(Nc2ncc3c(n2)N(C2CCCC2)CCC(=O)N3C)cc1 [Example 122, 6-cyclopentyl-9-[(4-dimethylaminophenyl)amino]-2-methyl-2,6,8,10-tetrazabicyclo[5.4.0]undeca-8,10,12-trien-3-one]	< 100 µM	< 30 µM
CN1C(=O)CCN(C2CCCC2)c2nc(Nc3ccc(S(N)(=O)=O)cc3)ncc21 [Example 123, 4-[(6-cyclopentyl-2-methyl-3-oxo-2,6,8,10-tetrazabicyclo[5.4.0]undeca-8,10,12-trien-9-yl)amino]benzenesulfonamide]	< 100 µM	< 30 µM
CC(=O)N1CCc2cc(Nc3ncc4c(n3)N(C3CCCC3)CCC(=O)N4C)ccc21 [Example 124, 9-[(1-acetyl-2,3-dihydroindol-5-yl)amino]-6-cyclopentyl-2-methyl-2,6,8,10-tetrazabicyclo[5.4.0]undeca-8,10,12-trien-3-one]	< 1 µM	< 30 µM
COCCNS(=O)(=O)c1ccc(Nc2ncc3c(n2)N(C2CCCC2)CCC(=O)N3C)cc1 [Example 125, 4-[(6-cyclopentyl-2-methyl-3-oxo-2,6,8,10-tetrazabicyclo[5.4.0]undeca-8,10,12-trien-9-yl)amino]-N-(2-methoxyethyl)benzenesulfonamide]	< 100 µM	< 30 µM
CC(=O)N1CCN(c2ccc(Nc3ncc4c(n3)N(C3CCCC3)CCC(=O)N4C)cc2)CC1 [Example 128, 9-[[4-(4-acetylpiperazin-1-yl)phenyl]amino]-6-cyclopentyl-2-methyl-2,6,8,10-tetrazabicyclo[5.4.0]undeca-8,10,12-trien-3-one]	< 1 µM	< 30 µM
CN1C(=O)CCN(C2CCCC2)c2nc(Nc3ccc(Cl)c(CO)c3)ncc21 [Example 131, 9-[[4-chloro-3-(hydroxymethyl)phenyl]amino]-6-cyclopentyl-2-methyl-2,6,8,10-tetrazabicyclo[5.4.0]undeca-8,10,12-trien-3-one]	< 1 µM	< 30 µM
CN1C(=O)CCN(C2CCCC2)c2nc(Nc3ccc4[nH]c(-c5cccnc5)nc4c3)ncc21 [Example 132, 6-cyclopentyl-2-methyl-9-[(2-pyridin-3-yl-1H-benzoimidazol-5-yl)amino]-2,6,8,10-tetrazabicyclo[5.4.0]undeca-8,10,12-trien-3-one]	< 1 µM	< 30 µM
CN1C(=O)CCN(C2CCCC2)c2nc(Nc3ccc(CNC(=O)c4ccccn4)cc3)ncc21 [Example 133, N-[[4-[(6-cyclopentyl-2-methyl-3-oxo-2,6,8,10-tetrazabicyclo[5.4.0]undeca-8,10,12-trien-9-yl)amino]phenyl]methyl]pyridine-2-carboxamide]	< 100 µM	< 30 µM
CN1C(=O)CCN(C2CCCC2)c2nc(Nc3ccc(OCCN4CCOCC4)cc3)ncc21 [Example 135, 6-cyclopentyl-2-methyl-9-[[4-(2-morpholin-4-ylethoxy)phenyl]amino]-2,6,8,10-tetrazabicyclo[5.4.0]undeca-8,10,12-trien-3-one]	< 100 µM	< 1 µM

Next, values leading:

IC50 [1]	IC50 [2]	SMILES
< 0.3 µM	< 0.3 µM	COc1cc(C(=O)NCC2CCCN(C)C2)ccc1Nc1ncc2c(n1)N(C1CCCC1)CCC(=O)N2C (centres unmarked) [Example 84, 4-[(6-cyclopentyl-2-methyl-3-oxo-2,6,8,10-tetrazabicyclo[5.4.0]undeca-8,10,12-trien-9-yl)amino]-3-methoxy-N-[(1-methyl-3-piperidyl)methyl]benzamide]
< 0.3 µM	< 0.3 µM	COc1cc(C(=O)NCCC2CCCCN2C)ccc1Nc1ncc2c(n1)N(C1CCCC1)CCC(=O)N2C (centres unmarked) [Example 85, 4-[(6-cyclopentyl-2-methyl-3-oxo-2,6,8,10-tetrazabicyclo[5.4.0]undeca-8,10,12-trien-9-yl)amino]-3-methoxy-N-[2-(1-methyl-2-piperidyl)ethyl]benzamide]
< 1 µM	< 30 µM	CN1C(=O)CCN(C2CCCC2)c2nc(Nc3ccc(C(=O)NC4CCCCC4)cc3)ncc21 [Example 89, N-cyclohexyl-4-[(6-cyclopentyl-2-methyl-3-oxo-2,6,8,10-tetrazabicyclo[5.4.0]undeca-8,10,12-trien-9-yl)amino]benzamide]
< 1 µM	< 0.3 µM	COc1cc(C(=O)NC2CCCCC2)ccc1Nc1ncc2c(n1)N(C1CCCC1)CCC(=O)N2C [Example 90, N-cyclohexyl-4-[(6-cyclopentyl-2-methyl-3-oxo-2,6,8,10-tetrazabicyclo[5.4.0]undeca-8,10,12-trien-9-yl)amino]-3-methoxy-benzamide]
< 0.3 µM	< 0.3 µM	COc1cc(C(N)=O)ccc1Nc1ncc2c(n1)N(C1CCCC1)CCC(=O)N2C [Example 92, 4-[(6-cyclopentyl-2-methyl-3-oxo-2,6,8,10-tetrazabicyclo[5.4.0]undeca-8,10,12-trien-9-yl)amino]-3-methoxy-benzamide]
< 1 µM	< 0.3 µM	CCCNC(=O)c1ccc(Nc2ncc3c(n2)N(C2CCCC2)CCC(=O)N3C)c(OC)c1 [Example 93, 4-[(6-cyclopentyl-2-methyl-3-oxo-2,6,8,10-tetrazabicyclo[5.4.0]undeca-8,10,12-trien-9-yl)amino]-3-methoxy-N-propyl-benzamide]
< 1 µM	< 0.3 µM	COc1cc(C(=O)NC(C)C)ccc1Nc1ncc2c(n1)N(C1CCCC1)CCC(=O)N2C [Example 95, 4-[(6-cyclopentyl-2-methyl-3-oxo-2,6,8,10-tetrazabicyclo[5.4.0]undeca-8,10,12-trien-9-yl)amino]-3-methoxy-N-propan-2-yl-benzamide]
< 1 µM	< 0.3 µM	COc1cc(C(=O)NC2CCC2)ccc1Nc1ncc2c(n1)N(C1CCCC1)CCC(=O)N2C [Example 98, N-cyclobutyl-4-[(6-cyclopentyl-2-methyl-3-oxo-2,6,8,10-tetrazabicyclo[5.4.0]undeca-8,10,12-trien-9-yl)amino]-3-methoxy-benzamide]
< 0.3 µM	< 1 µM	COc1cc(OC2CCN(C)C2)ccc1Nc1ncc2c(n1)N(C1CCCC1)CCC(=O)N2C (centres unmarked) [Example 114, 6-cyclopentyl-9-[[2-methoxy-4-(1-methylpyrrolidin-3-yl)oxy-phenyl]amino]-2-methyl-2,6,8,10-tetrazabicyclo[5.4.0]undeca-8,10,12-trien-3-one]
